Measured values reported in patent publication US10844058B2, “Valbenazine salts and polymorphs thereof” (Neurocrine Biosciences, Inc., priority 2015, dated 2020).
Structures can show the parent of a compound that is named as a salt. Where two headings read alike, the source gives them in different places. One block for each compound: values may come before it.

Tests used:
Type in all cases: physicochemical
[1] = Thermodynamic aqueous solubility; conditions: for solubility at 24 h: water, 25 °C, thermodynamic from solid
Procedure: The suspension was equilibrated at 25° C. for 24 hours then the pH was measured. The suspension was then filtered through a glass fibre C filter. […] Different volumes of the standard, diluted and undiluted sample solutions were injected.

[2] = Gravimetric vapour sorption (GVS); conditions: for Stability to humidity GVS uptake: 25° C.; for XRPD pattern following the adsorption/desorption analysis: after GVS
Procedure: The Gravimetric sorption isotherms were obtained using a Hiden IGASorp moisture sorption analyser, controlled by CFRSorp software. The sample temperature was maintained at 25° C. by a Huber re-circulating water bath. The humidity was controlled by mixing streams of dry and wet nitrogen, with a total flow rate of 250 ml/min. The relative humidity (RH) was measured by a calibrated Vaisala RH probe (dynamic range of 0-95% RH), located near the sample. The weight change, (mass relaxation) of the sample as a function of % RH was constantly monitored by the microbalance (accuracy 0.001 mg). Typically 10-20 mg of sample was placed in a tared mesh stainless steel basket at room temperature. The sample was loaded and unloaded at 40% RH and 25° C. (typical room conditions). The standard isotherm was performed at 25° C. at 10% RH intervals over a 0-90% RH range.

[3] = Stability to humidity on storage (form by XRPD)
[4] = Phase equilibration between Form I, II and IV of Formula I (Example 12); conditions: slurried 13 days
Procedure: About 10 mg of the mixture was then slurried in 200 μl of pre-saturated solvent at the desired temperatures for 13 days. The solids were then quickly filtered and analyzed by XRPD.

[5] = Form conversion on heating (VT-XRPD)
Source text: It is not clear whether a form change accompanies this loss of water, as the water is readily taken back up when the sample is returned to ambient RH.

[6] = Phase equilibration between Form I and IV of Formula I (Example 13)
Procedure: The suspensions of Form and IV from the equilibration studies were taken to 25° C.

[7] = relative humidity from about 0% to about 90%
[8] = relative humidity from about 0% to about 95%, di(4-methylbenzenesulfonate)

Structure (SMILES): COc1cc2c(cc1OC)[C@H]1C[C@@H](OC(=O)[C@@H](N)C(C)C)[C@H](CC(C)C)CN1CC2 [Form I of Formula II, (S)-(2R,3R,11bR)-3-isobutyl-9,10-dimethoxy-2,3,4,6,7,11b-hexahydro-1H-pyrido[2,1-a]isoquinolin-2-yl 2-amino-3-methylbutanoate dihydrochloride]
- solubility at 24 h ([1]; pH 4.1, water, at pH 4.1, read-out: Aqueous solubility): > 90 mg/mL
- solubility at 24 h ([1]; 25° C., 24 hours, at the pH of the next column, read-out: Aqueous solubility mg/mL free form): > 90 mg/mL
- Stability to humidity GVS uptake [2]: 15.2%
- XRPD pattern following the adsorption/desorption analysis ([2]; dihydrochloride): substantially changed
- GVS mass increase [2, 7]: about 14%
- Form after storage ([3]; 25° C./92% RH for seven days): change of form
- Form after storage ([3]; 40° C./75% RH for seven days): change of form

Structure (SMILES): COc1cc2c(cc1OC)C1CC(OC(=O)C(N)C(C)C)C(CC(C)C)CN1CC2.Cc1ccc(S(=O)(=O)O)cc1.Cc1ccc(S(=O)(=O)O)cc1 (stereo not drawn) [Form I, II, and IV]
- Form found by XRPD after equilibration ([4]; Acetonitrile/2% water, 25° C.): Form I
- Form found by XRPD after equilibration ([4]; Acetonitrile/2% water, 50° C.): Form I
- Form found by XRPD after equilibration ([4]; Acetonitrile/5% water, 5° C.): Form IV
- Form found by XRPD after equilibration ([4]; Acetonitrile/5% water, 25° C.): Form I
- Form found by XRPD after equilibration ([4]; Acetonitrile/5% water, 50° C.): Form I
- Form found by XRPD after equilibration ([4]; Acetonitrile/10% water, 5° C.): Form IV
- Form found by XRPD after equilibration ([4]; Acetonitrile/10% water, 25° C.): Form I
- Form found by XRPD after equilibration ([4]; Acetonitrile/10% water, 50° C.): Form I
- Form found by XRPD after equilibration ([4]; Acetonitrile, 5° C.): Form I
- Form found by XRPD after equilibration ([4]; Acetonitrile, 25° C.): Form I
- Form found by XRPD after equilibration ([4]; Acetonitrile, 50° C.): Form I

Structure (SMILES): COc1cc2c(cc1OC)[C@H]1C[C@@H](OC(=O)[C@@H](N)C(C)C)[C@H](CC(C)C)CN1CC2 [Form II of Formula II, (S)-(2R,3R,11bR)-3-isobutyl-9,10-dimethoxy-2,3,4,6,7,11b-hexahydro-1H-pyrido[2,1-a]isoquinolin-2-yl 2-amino-3-methylbutanoate dihydrochloride]
- Aqueous solubility ([1]; at pH 4.1, dihydrochloride): > 67 mg/mL free form equivalent
- GVS mass loss ([2]; RH lowered to 0%): ca. 12%
- Form conversion on heating (VT-XRPD) ([5]; heating): no conversion to Form I on heating
- Temperature at which the material becomes amorphous (VT-XRPD) ([5]; no subsequent crystallization upon cooling): above 160 °C

Structure (SMILES): COc1cc2c(cc1OC)[C@H]1C[C@@H](OC(=O)[C@@H](N)C(C)C)[C@H](CC(C)C)CN1CC2.Cc1ccc(S(=O)(=O)O)cc1.Cc1ccc(S(=O)(=O)O)cc1 [Form II, (S)-(2R,3R,11bR)-3-isobutyl-9,10-dimethoxy-2,3,4,6,7,11b-hexahydro-1H-pyrido[2,1-a]isoquinolin-2-yl 2-amino-3-methylbutanoate di(4-methylbenzenesulfonate)]
- solubility at 24 h ([1]; pH 5.1, water, at pH 5.1, read-out: aqueous solubility): ~18.5 mg/mL
- Hygroscopicity ([2]; GVS): substantially non-hygroscopic
- Stability with respect to humidity ([2]; GVS): stable with respect to humidity
- XRPD pattern following the adsorption/desorption analysis ([2]; di(4-methylbenzenesulfonate)): substantially unchanged
- GVS mass increase [2, 8]: about 0.5%

Structure (SMILES): COc1cc2c(cc1OC)C1CC(OC(=O)C(N)C(C)C)C(CC(C)C)CN1CC2.O=C(O)C(=O)O.O=C(O)C(=O)O (stereo not drawn) [oxalate]
- Stability to humidity GVS uptake [2]: 0.8%
- Stability to humidity 25° C./92% RH ([3]; 25° C./92% RH): unchanged
- Stability to humidity 40° C./75% RH ([3]; 40° C./75% RH): unchanged

Results, then the compound that gave them:

- Stability with respect to humidity ([2]; GVS): stable with respect to humidity
- XRPD pattern following the adsorption/desorption analysis ([2]; di(4-methylbenzenesulfonate)): substantially unchanged
- GVS mass lost ([2]; relative humidity decreased between about 40 and 0% RH): 1.8%
- GVS mass increase [2, 8]: about 3.4%
- GVS mass increase ([2]; relative humidity from about 40% to about 95%): about 1.6%
- Form conversion in suspension ([6]; 25° C., overnight stirring): did not convert
- Form conversion in suspension ([6]; heated to 30° C. for 2 days): conversion to Form I was then complete
- Form conversion upon re-slurry ([6]; re-slurry at room temperature in acetonitrile): converts to Form I
- Form conversion upon heating ([5]; heating at about 230° C.): converts to Form I
Structure (SMILES): COc1cc2c(cc1OC)[C@H]1C[C@@H](OC(=O)[C@@H](N)C(C)C)[C@H](CC(C)C)CN1CC2.Cc1ccc(S(=O)(=O)O)cc1.Cc1ccc(S(=O)(=O)O)cc1 [Form IV, (S)-(2R,3R,11bR)-3-isobutyl-9,10-dimethoxy-2,3,4,6,7,11b-hexahydro-1H-pyrido[2,1-a]isoquinolin-2-yl 2-amino-3-methylbutanoate di(4-methylbenzenesulfonate)]

- XRPD pattern following the adsorption/desorption analysis ([2]; di(4-methylbenzenesulfonate)): substantially unchanged
- GVS mass lost ([2]; relative humidity decreased between about 20 and 0% RH): 1.2%
- GVS mass increase ([2]; relative humidity from about 10% to about 95%): about 1%
- Form conversion upon heating ([5]; heating between about 110° C. and about 140° C.): converts to Form VI
Structure (SMILES): COc1cc2c(cc1OC)[C@H]1C[C@@H](OC(=O)[C@@H](N)C(C)C)[C@H](CC(C)C)CN1CC2.Cc1ccc(S(=O)(=O)O)cc1.Cc1ccc(S(=O)(=O)O)cc1 [Form V, (S)-(2R,3R,11bR)-3-isobutyl-9,10-dimethoxy-2,3,4,6,7,11b-hexahydro-1H-pyrido[2,1-a]isoquinolin-2-yl 2-amino-3-methylbutanoate di(4-methylbenzenesulfonate)]

- Form conversion upon exposure to gravimetric vapour sorption analysis [2]: converts to Form V
- XRPD pattern following the adsorption/desorption analysis ([2]; di(4-methylbenzenesulfonate)): substantially changed
- GVS mass lost ([2]; relative humidity decreased between about 15% and 0% RH): 2.0%
- GVS mass lost ([2]; relative humidity decreased between about 90% and 15% RH): 1.2%
- GVS mass increase [2, 7]: about 3.1%
- GVS mass increase ([2]; relative humidity from about 40% to about 80%): about 0.5%
- GVS mass increase ([2]; relative humidity from about 80% to about 90%): about 3.1%
Structure (SMILES): COc1cc2c(cc1OC)[C@H]1C[C@@H](OC(=O)[C@@H](N)C(C)C)[C@H](CC(C)C)CN1CC2.Cc1ccc(S(=O)(=O)O)cc1.Cc1ccc(S(=O)(=O)O)cc1 [Form VI, (S)-(2R,3R,11bR)-3-isobutyl-9,10-dimethoxy-2,3,4,6,7,11b-hexahydro-1H-pyrido[2,1-a]isoquinolin-2-yl 2-amino-3-methylbutanoate di(4-methylbenzenesulfonate)]

- Stability to humidity GVS uptake [2]: >3.9%
Structure (SMILES): Br [hydrobromide]
